# Marks after values point to notes of the source that are not given here.
# Experiments:
# Alternaria solani = assay: Test C: tomato early blight, preventive spray on tomato seedlings, visual disease rating; conditions: for Test C rating (% disease control): 100 = 100% disease control
# Botrytis cinerea = assay: Test B: tomato Botrytis, preventive spray on tomato seedlings, visual disease rating; conditions: for Test B rating (% disease control): 100 = 100% disease control
# [1] = tested on: Puccinia recondita f. sp. tritici; assay: Test I: wheat leaf rust, preventive spray on wheat seedlings, visual disease rating; conditions: for Test I rating (% disease control): 100 = 100% disease control
# Septoria nodorum = assay: Test F: Septoria glume blotch, preventive spray on wheat seedlings, visual disease rating; conditions: for Test F rating (% disease control): 100 = 100% disease control
# Septoria tritici = assay: Test G: wheat leaf blotch, preventive spray on wheat seedlings, visual disease rating; conditions: for Test G rating (% disease control): 100 = 100% disease control
# [2] = tested on: Erysiphe graminis f sp. tritici; assay: Test J: wheat powdery mildew, preventive spray on wheat seedlings, visual disease rating; conditions: for Test J rating (% disease control): 100 = 100% disease control
# [3] = tested on: Puccinia recondita f. sp. tritici; assay: Test H: wheat leaf rust, curative spray on inoculated wheat seedlings, visual disease rating; conditions: for Test H rating (% disease control): 100 = 100% disease control
# [4] = tomato early blight, 0 = no control relative to controls
# [5] = tomato Botrytis, 0 = no control relative to controls
# [6] = wheat leaf rust, preventive, 0 = no control relative to controls
# [7] = Septoria glume blotch, 0 = no control relative to controls
# [8] = wheat leaf blotch, 0 = no control relative to controls
# [9] = wheat powdery mildew, 0 = no control relative to controls
# [10] = wheat leaf rust, curative, 0 = no control relative to controls
SMILES,Test C rating (% disease control) (Alternaria solani; [4]) [%],Test B rating (% disease control) (Botrytis cinerea; [5]) [%],"Test I rating (% disease control) [1, 6] [%]",Test F rating (% disease control) (Septoria nodorum; [7]) [%],Test G rating (% disease control) (Septoria tritici; [8]) [%],"Test J rating (% disease control) [2, 9] [%]","Test H rating (% disease control) [3, 10] [%]",also measured
"Cc1nn(C)c(Nc2ccc(F)cc2Br)c1-c1ccc(F)cc1Cl [Compound 265, N-(2-bromo-4-fluorophenyl)-4-(2-chloro-4-fluorophenyl)-1,3-dimethyl-1H-pyrazol-5-amine]",–,–,–,–,–,–,–,"pest or weed control at 200 µg/mL (Alternaria solani; Alternaria solani, in Solanum lycopersicum, 168 h, read-out: Test C rating (% disease control)): 99%; pest or weed control at 200 µg/mL (Botrytis cinerea; Botrytis cinerea, in Solanum lycopersicum, 120 h, read-out: Test B rating (% disease control)): 100%; pest or weed control at 200 µg/mL ([1]; 192 h, read-out: Test I rating (% disease control)): 100%; pest or weed control at 200 µg/mL (Septoria nodorum; Parastagonospora nodorum, in Triticum aestivum, 192 h, read-out: Test F rating (% disease control)): 78%; pest or weed control at 200 µg/mL (Septoria tritici; Zymoseptoria tritici, in Triticum aestivum, 504 h, read-out: Test G rating (% disease control)): 100%; pest or weed control at 200 µg/mL ([2]; Blumeria graminis, in Triticum aestivum, 192 h, read-out: Test J rating (% disease control)): 100%; pest or weed control at 200 µg/mL ([3]; 144 h, read-out: Test H rating (% disease control)): 90%"
Cc1nn(C)c(Oc2cccc(C#N)c2)c1-c1c(F)cc(F)cc1F [compound 222],99,99,99,0,100,100,88,–
COc1ccc(-c2c(C)nn(C)c2Nc2ncc(Cl)cc2Cl)c(Cl)c1 [compound 267],79,100,96,60,100,93,0,–
Cc1nn(C)c(Oc2c(F)cc(C#N)cc2F)c1-c1ccccc1Cl [compound 271],99,100,99,99,100,98,0,–
Cc1nn(C)c(Oc2c(F)cc(C#N)cc2F)c1-c1c(F)cc(F)cc1F [compound 31],–,–,–,–,–,–,–,"Test C rating (% disease control), value marked * (Alternaria solani; tomato early blight, preventive spray, rating marked with asterisk (different test condition, key not given)): 98* %; Test B rating (% disease control), value marked * (Botrytis cinerea; tomato Botrytis, preventive spray, rating marked with asterisk (different test condition, key not given)): 99* %; Test I rating (% disease control), value marked * ([1]; wheat leaf rust, preventive spray, rating marked with asterisk (different test condition, key not given)): 79* %; Test F rating (% disease control), value marked * (Septoria nodorum; Septoria glume blotch, preventive spray, rating marked with asterisk (different test condition, key not given)): 0* %; Test G rating (% disease control), value marked * (Septoria tritici; wheat leaf blotch, preventive spray, rating marked with asterisk (different test condition, key not given)): 47* %; Test J rating (% disease control), value marked * ([2]; wheat powdery mildew, preventive spray, rating marked with asterisk (different test condition, key not given)): 60* %; Test H rating (% disease control), value marked * ([3]; wheat leaf rust, curative spray, rating marked with asterisk (different test condition, key not given)): 15* %"
CCN(c1c(F)cc(OC)cc1F)c1c(-c2ccc(F)cc2Cl)c(C)nn1C [compound 158],0,100,99,0,99,98,18,–
COc1cc(F)c(-c2c(C)nn(C)c2Nc2ccc(C)cc2)c(F)c1 [compound 50],–,–,–,–,–,–,–,"Test C rating (% disease control) (Alternaria solani; tomato early blight, preventive spray, 0 = no control): 57%; Test B rating (% disease control) (Botrytis cinerea; tomato Botrytis, preventive spray, 0 = no control): 99%; Test I rating (% disease control) ([1]; wheat leaf rust, preventive spray, 0 = no control): 98%; Test F rating (% disease control) (Septoria nodorum; Septoria glume blotch on wheat, preventive spray, 0 = no control): 0%; Test G rating (% disease control) (Septoria tritici; wheat leaf blotch, preventive spray, 0 = no control): 100%; Test J rating (% disease control) ([2]; wheat powdery mildew, preventive spray, 0 = no control): 99%; Test H rating (% disease control) ([3]; wheat leaf rust, curative spray, 0 = no control): 0%"
COc1cc(F)c(-c2c(C)nn(C)c2Oc2ccc(Cl)c(C#N)c2)c(F)c1 [compound 218],0,94,92,0,99,87,17,–
Cc1nn(C)c(Nc2cc(F)ccc2F)c1-c1c(F)cccc1F [compound 197],0,97,79,95,99,96,0,–
Cc1nn(C)c(Nc2ncc(F)cc2F)c1-c1c(F)cccc1Cl [compound 279],99,100,98,0,100,100,8,–

# Source: patent publication US10448639B2, “Fungicidal pyrazoles” (FMC CORPORATION, priority 2009, dated 2019)
